Values of other authors, collected in PMC5383348 (Trends in cancer, 2017).
pIC50: −log10 of the molar value.

What was measured:
recombinant human GLS = conditions: read-out: IC50 value against recombinant human GLS
[1] = system: cultured cancer cell lines for triple-negative breast cancer and multiple myeloma
[2] = system: xenograft models for triple-negative breast cancer and multiple myeloma

pIC50 (recombinant human GLS): > 7.30
Compound: O=C(Cc1cccc(OC(F)(F)F)c1)Nc1ccc(CCCCc2nnc(NC(=O)Cc3ccccn3)s2)nn1 [CB-839]
efficacy against cultured cancer cell lines [1]: shown efficacy | efficacy against xenograft models [2]: shown efficacy
